# According to patent publication EP2508198B1, “Peptides for suppressing inflammation reactions in hemodialysis” (Fresenius Medical Care Deutschland GmbH, priority 2011, dated 2014):
# Residues, ends and D or L forms follow the SMILES beside them.
# What was measured:
# TNF-α = experiment: Whole blood from uremic patients stimulated ex vivo with LPS with or without peptides (non heated and heated), TNF-α ELISA; format: cell-based, human; details: whole blood of uremic patients, LPS 1 ng/ml, 24 h; average over the tested concentrations
# Description: (§1) Whole blood studies with blood from uremic patients including heat sterilization experiments
# (§2) A first goal of this experiment was to test whether the three amino acid antiinflammatory peptide KPV (unpegylated and pegylated version "monopeptide") will retain its activity under conditions of steam sterilization at 125°C for 15 min used in the production process of dialysis modules. A second goal was to study the anti-inflammatory effect of alpha-MSH and the peptides in uremic patients, which represent the real clinical situation.
# (§3) To perform this experiment whole blood samples were taken from voluntary uremic patients (n=10) and subsequently stimulated ex vivo with lipopolysaccharide (LPS) with or without alpha-MSH, KPV or pegylated KPV (non heated and heated) and TNF-α and IL-6 release was determined by ELISA.
# (§4) 25 ml blood from 10 uremic patients (dialysis patients treated at the hospital in Konstanz, Germany) was drawn and blood values were analyzed immediately. Blood was 1:10 diluted with PBS buffer and each stimulation condition was performed in triplicates and incubated at 200 µl in 96 well plates. […]
# IL-6 = experiment: Whole blood from uremic patients stimulated ex vivo with LPS with or without peptides (non heated and heated), IL-6 ELISA; format: cell-based, human; details: whole blood of uremic patients, LPS 1 ng/ml, 24 h; average over the tested concentrations
# Description: as §1, §2, §3, §4
# [1] = test system: LPS-induced TNF-α release; experiment: Ex vivo stimulation of human PBMCs with LPS (pre-incubation or co-stimulation with peptides), TNF-α ELISA of supernatants; format: cell-based; design: TNF-α, Donor 2 / TNF-α, Donor 3 / TNF-α, Donor 4 / TNF-α, Donor 5 / TNF-α, Donor 6 / TNF-α, MV+SD: unit not given here; details: for TNF-α, %: % of LPS control c (100.00); for effect on LPS-induced TNF-α release ("inflammation"): pre-stimulation or co-incubation
# Description: Ex vivo stimulation of human peripheral blood mononuclear cells (PBMCs)
# For the stimulation of PBMCs the following concentrations were chosen: • LPS 1 ng/ml alone • α-MSH • ∘ 1µM; 10µM; 100µM • Peg-KPV (pegylated tripeptide) • ∘ 1µM; 10µM; 100µM; 1000µM
# The stimulation procedure was as described below:
# All cells were incubated for 24h and centrifuged at 1700 rpm and supernatants were used for TNF- α ELISA measurement according to manufacturer's protocols.
# [2] = LPS 3 h pre-incubation, then LPS+peptide 24h, peptide 1 µM
# [3] = LPS 3 h pre-incubation, then LPS+peptide 24h, peptide 10 µM
# [4] = LPS 3 h pre-incubation, then LPS+peptide 24h, peptide 100 µM
# [5] = LPS 3 h pre-incubation, then LPS+peptide 24h, peptide 1000 µM
# [6] = LPS + peptide simultaneously, 24h, peptide 1 µM
# [7] = LPS + peptide simultaneously, 24h, peptide 10 µM
# [8] = LPS + peptide simultaneously, 24h, peptide 100 µM
# [9] = LPS + peptide simultaneously, 24h, peptide 1000 µM
# [10] = mean of donors, LPS 3 h pre-incubation, then LPS+peptide 24h, peptide 1 µM
# [11] = mean of donors, LPS 3 h pre-incubation, then LPS+peptide 24h, peptide 10 µM
# [12] = mean of donors, LPS 3 h pre-incubation, then LPS+peptide 24h, peptide 100 µM
# [13] = mean of donors, LPS + peptide simultaneously, 24h, peptide 1 µM
# [14] = mean of donors, LPS + peptide simultaneously, 24h, peptide 10 µM
# [15] = mean of donors, LPS + peptide simultaneously, 24h, peptide 100 µM
compound,measurement,setting,value
"CC(=O)N[C@@H](CCCCN)C(=O)N1CCC[C@H]1C(=O)N[C@H](C(N)=O)C(C)C [KPV, Ac-Lys-Pro-Val-NH2] (Ac-Lys-Pro-Val-NH2)",average inhibition for TNF-α,TNF-α,around 30%
same,average inhibition for IL-6,IL-6,around 20%
same,"TNF-α, %",[1]; [2],85.28%
same,"TNF-α, %",[1]; [3],83.53%
same,"TNF-α, %",[1]; [4],73.40%
same,"TNF-α, %",[1]; [5],38.98%
same,"TNF-α, %",[1]; [6],78.64%
same,"TNF-α, %",[1]; [7],74.30%
same,"TNF-α, %",[1]; [8],65.76%
same,"TNF-α, %",[1]; [9],25.35%
same,"TNF-α, Donor 2",[1]; [2],4025
same,"TNF-α, Donor 3",[1]; [2],4554
same,"TNF-α, Donor 4",[1]; [2],3541
same,"TNF-α, Donor 5",[1]; [2],2301
same,"TNF-α, Donor 6",[1]; [2],4299
same,"TNF-α, Donor 2",[1]; [3],4126
same,"TNF-α, Donor 3",[1]; [3],4387
same,"TNF-α, Donor 4",[1]; [3],3666
same,"TNF-α, Donor 5",[1]; [3],2209
same,"TNF-α, Donor 6",[1]; [3],3949
same,"TNF-α, Donor 2",[1]; [4],3542
same,"TNF-α, Donor 3",[1]; [4],5022
same,"TNF-α, Donor 4",[1]; [4],2886
same,"TNF-α, Donor 5",[1]; [4],1931
same,"TNF-α, Donor 6",[1]; [4],3731
same,"TNF-α, Donor 3",[1]; [5],1816
same,"TNF-α, Donor 4",[1]; [5],1494
same,"TNF-α, Donor 5",[1]; [5],1054
same,"TNF-α, Donor 6",[1]; [5],2482
same,"TNF-α, Donor 2",[1]; [6],3426
same,"TNF-α, Donor 3",[1]; [6],3955
same,"TNF-α, Donor 4",[1]; [6],3702
same,"TNF-α, Donor 5",[1]; [6],1893
same,"TNF-α, Donor 6",[1]; [6],3541
same,"TNF-α, Donor 2",[1]; [7],3154
same,"TNF-α, Donor 3",[1]; [7],3907
same,"TNF-α, Donor 4",[1]; [7],3369
same,"TNF-α, Donor 5",[1]; [7],1706
same,"TNF-α, Donor 6",[1]; [7],3470
same,"TNF-α, Donor 2",[1]; [8],2562
same,"TNF-α, Donor 3",[1]; [8],3505
same,"TNF-α, Donor 4",[1]; [8],3077
same,"TNF-α, Donor 5",[1]; [8],1525
same,"TNF-α, Donor 6",[1]; [8],3142
same,"TNF-α, Donor 3",[1]; [9],931
same,"TNF-α, Donor 4",[1]; [9],934
same,"TNF-α, Donor 5",[1]; [9],594
same,"TNF-α, Donor 6",[1]; [9],1801
same,"TNF-α, MV+SD","[1]; mean of donors (Donor 2 not done), LPS 3 h pre-incubation, then LPS+peptide 24h, peptide 1000 µM",1711.5
same,"TNF-α, MV+SD","[1]; mean of donors (Donor 2 not done), LPS + peptide simultaneously, 24h, peptide 1000 µM",1065
same,"TNF-α, MV+SD",[1]; [10],3744
same,"TNF-α, MV+SD",[1]; [11],3667.4
same,"TNF-α, MV+SD",[1]; [12],3222.4
same,"TNF-α, MV+SD",[1]; [13],3303.4
same,"TNF-α, MV+SD",[1]; [14],3121.2
same,"TNF-α, MV+SD",[1]; [15],2762.2
same,"effect on LPS-induced TNF-α release (""inflammation"")",[1],inhibitory effect
α-MSH [α-MSH Sigma],"TNF-α, %",[1]; [2],89.62%
same,"TNF-α, %",[1]; [3],81.56%
same,"TNF-α, %",[1]; [4],54.57%
same,"TNF-α, %",[1]; [6],70.97%
same,"TNF-α, %",[1]; [7],61.67%
same,"TNF-α, %",[1]; [8],32.86%
same,"TNF-α, Donor 2",[1]; [2],5005
same,"TNF-α, Donor 3",[1]; [2],4345
same,"TNF-α, Donor 4",[1]; [2],3968
same,"TNF-α, Donor 5",[1]; [2],2070
same,"TNF-α, Donor 6",[1]; [2],4286
same,"TNF-α, Donor 2",[1]; [3],4193
same,"TNF-α, Donor 3",[1]; [3],3883
same,"TNF-α, Donor 4",[1]; [3],3674
same,"TNF-α, Donor 5",[1]; [3],1799
same,"TNF-α, Donor 6",[1]; [3],4356
same,"TNF-α, Donor 2",[1]; [4],3009
same,"TNF-α, Donor 3",[1]; [4],2886
same,"TNF-α, Donor 4",[1]; [4],2073
same,"TNF-α, Donor 5",[1]; [4],942
same,"TNF-α, Donor 6",[1]; [4],2069
same,"TNF-α, Donor 2",[1]; [6],4098
same,"TNF-α, Donor 3",[1]; [6],3273
same,"TNF-α, Donor 4",[1]; [6],3116
same,"TNF-α, Donor 5",[1]; [6],1319
same,"TNF-α, Donor 6",[1]; [6],3100
same,"TNF-α, Donor 2",[1]; [7],3734
same,"TNF-α, Donor 3",[1]; [7],2776
same,"TNF-α, Donor 4",[1]; [7],2568
same,"TNF-α, Donor 5",[1]; [7],1237
same,"TNF-α, Donor 6",[1]; [7],2638
same,"TNF-α, Donor 2",[1]; [8],1207
same,"TNF-α, Donor 3",[1]; [8],2337
same,"TNF-α, Donor 4",[1]; [8],1248
same,"TNF-α, Donor 5",[1]; [8],713
same,"TNF-α, Donor 6",[1]; [8],1386
same,"TNF-α, MV+SD",[1]; [10],3934.8
same,"TNF-α, MV+SD",[1]; [11],3581
same,"TNF-α, MV+SD",[1]; [12],2395.8
same,"TNF-α, MV+SD",[1]; [13],2981.2
same,"TNF-α, MV+SD",[1]; [14],2590.6
same,"TNF-α, MV+SD",[1]; [15],1380.2
same,"effect on LPS-induced TNF-α release (""inflammation"")",[1],inhibitory effect
